Usually IC50 stands for the concentration that inhibits the measured activity by half.

Molecules are shown by their SMILES.

In this assay the test system is JR251 or RBL cells. The assay is described as follows: Store-operated calcium entry, either JR251 or RBL cells, or both. In kind it is cell-based. On the procedure:
The day prior to performing the assay, RBL-2H3 cells are plated in 50 μL of complete medium in a 384 well plate. Cells are grown at 37° C./6% CO2 overnight and grow to 50-60% confluence by the next day. On the assay day, 1.5 μM Fluo-4-AM dye (Invitrogen) in complete medium is added and incubated for 1 hour at RT. Cells are washed twice in Ca^2+-free HBSS buffer and 35 μL Ca^2+-free HBSS buffer is added to each well. 10 μL of a test compound prepared in a Ca^2+-free HBSS solution at 4.5× of the desired concentration is added to a well and incubated for 5 minutes at RT. 10 μL of thapsigargin prepared in a Ca^2+-free HBSS solution at 5.5× of the desired concentration (5.5 uM) is added to each well and incubated for an additional 25 minutes. The initial baseline fluorescence signal is measured with a FLIPR^384 (Molecular Devices) plate reader. 5 μL of 12× calcium in HBSS (12 mM) is added and changes in cellular fluorescence are measured with the FLIPR^384 plate reader. In each well, the change in the fluorescent signal as a function of time due to calcium entry into the cell is determined by calculating the difference between the fluorescent signal measured 7 seconds after calcium addition and the initial baseline fluorescence signal at time zero (t=0). This parameter is designated Upslope. The IC50 value is calculated as the concentration at which 50% of the Upslope is inhibited.
For `O=C(Nc1scc(-c2ccc(C(F)(F)F)cc2F)c1C(=O)O)c1nc2ccccc2o1` [2-(benzo[d]oxazole-2-carboxamido)-4-(2-fluoro-4-(trifluoromethyl)phenyl)thiophene-3-carboxylic acid], the IC50 is < 10 µM. Next, `Cc1ccc(-c2csc(NC(=O)c3nc4ccccc4o3)c2C(=O)O)c(F)c1` [2-(benzo[d]oxazole-2-carboxamido)-4-(2-fluoro-4-methylphenyl)thiophene-3-carboxylic acid]: < 10 µM. Regarding `COc1cc(C(F)(F)F)ccc1-c1csc(NC(=O)c2nc3ccccc3o2)c1C(=O)O` [2-(benzo[d]oxazole-2-carboxamido)-4-(2-methoxy-4-(trifluoromethyl)phenyl)thiophene-3-carboxylic acid], the IC50 is < 10 µM. As to `Cc1cc(C(F)(F)F)ccc1-c1csc(NC(=O)c2nc3ccccc3o2)c1C(=O)O` [2-(benzo[d]oxazole-2-carboxamido)-4-(2-methyl-4-(trifluoromethyl)phenyl)thiophene-3-carboxylic acid], the IC50 is < 10 µM. For the compound `O=C(Nc1scc(-c2cc(F)c(F)c(F)c2)c1C(=O)O)c1nc2ccccc2o1` [2-(benzo[d]oxazole-2-carboxamido)-4-(3,4,5-trifluorophenyl)thiophene-3-carboxylic acid], the IC50 was < 10 µM. For `O=C(Nc1scc(-c2ccc(Cl)c(Cl)c2)c1C(=O)O)c1nc2ccccc2o1` [2-(benzo[d]oxazole-2-carboxamido)-4-(3,4-dichlorophenyl)thiophene-3-carboxylic acid], the IC50 is < 10 µM. As to `Cc1ccc(-c2csc(NC(=O)c3nc4ccccc4o3)c2C(=O)O)cc1C` [2-(benzo[d]oxazole-2-carboxamido)-4-(3,4-dimethylphenyl)thiophene-3-carboxylic acid], the IC50 is < 10 µM. As for `Cc1ccc(-c2csc(NC(=O)c3nc4ccccc4o3)c2C(=O)O)cc1CO` [2-(benzo[d]oxazole-2-carboxamido)-4-(3-(hydroxymethyl)-4-methylphenyl)thiophene-3-carboxylic acid], the IC50 was < 10 µM.

On to `N#Cc1cc(-c2csc(NC(=O)c3nc4ccccc4o3)c2C(=O)O)ccc1F` [2-(benzo[d]oxazole-2-carboxamido)-4-(3-cyano-4-fluorophenyl)thiophene-3-carboxylic acid], for which the half-inhibitory concentration (IC50) was < 10 µM. Next, `Cc1ccc(-c2csc(NC(=O)c3nc4ccccc4o3)c2C(=O)O)cc1F` [2-(benzo[d]oxazole-2-carboxamido)-4-(3-fluoro-4-methylphenyl)thiophene-3-carboxylic acid]: < 10 µM. The value for `O=C(Nc1scc(-c2ccc(OC(F)(F)F)cc2)c1C(=O)O)c1nc2ccccc2o1` [2-(benzo[d]oxazole-2-carboxamido)-4-(4-(trifluoromethoxy)phenyl)thiophene-3-carboxylic acid] was < 10 µM; that for `O=C(Nc1scc(-c2ccc(C(F)(F)F)cc2)c1C(=O)O)c1nc2ccccc2o1` [2-(benzo[d]oxazole-2-carboxamido)-4-(4-(trifluoromethyl)phenyl)thiophene-3-carboxylic acid] was < 10 µM; that for `O=C(Nc1scc(-c2ccc(Br)c(F)c2F)c1C(=O)O)c1nc2ccccc2o1` [2-(benzo[d]oxazole-2-carboxamido)-4-(4-bromo-2,3-difluorophenyl)thiophene-3-carboxylic acid] was < 10 µM. As to `O=C(Nc1scc(-c2ccc(Br)cc2F)c1C(=O)O)c1nc2ccccc2o1` [2-(benzo[d]oxazole-2-carboxamido)-4-(4-bromo-2-fluorophenyl)thiophene-3-carboxylic acid], the IC50 is < 10 µM. Turning to `O=C(Nc1scc(-c2ccc(Br)cc2)c1C(=O)O)c1nc2ccccc2o1` [2-(benzo[d]oxazole-2-carboxamido)-4-(4-bromophenyl)thiophene-3-carboxylic acid], the IC50 was < 10 µM. As to `O=C(Nc1scc(-c2ccc(Cl)c(F)c2F)c1C(=O)O)c1nc2ccccc2o1` [2-(benzo[d]oxazole-2-carboxamido)-4-(4-chloro-2,3-difluorophenyl)thiophene-3-carboxylic acid], the IC50 is < 10 µM. As for `O=C(Nc1scc(-c2cc(F)c(Cl)cc2F)c1C(=O)O)c1nc2ccccc2o1` [2-(benzo[d]oxazole-2-carboxamido)-4-(4-chloro-2,5-difluorophenyl)thiophene-3-carboxylic acid], the half-inhibitory concentration (IC50) was < 10 µM.

In the case of `Cc1cc(-c2csc(NC(=O)c3nc4ccccc4o3)c2C(=O)O)c(F)cc1Cl` [2-(benzo[d]oxazole-2-carboxamido)-4-(4-chloro-2-fluoro-5-methylphenyl)thiophene-3-carboxylic acid], the IC50 was < 10 µM.

For `O=C(Nc1scc(-c2ccc(Cl)cc2F)c1C(=O)O)c1nc2ccccc2o1` [2-(benzo[d]oxazole-2-carboxamido)-4-(4-chloro-2-fluorophenyl)thiophene-3-carboxylic acid], the IC50 is < 10 µM. For the compound `Cc1cc(Cl)ccc1-c1csc(NC(=O)c2nc3ccccc3o2)c1C(=O)O` [2-(benzo[d]oxazole-2-carboxamido)-4-(4-chloro-2-methylphenyl)thiophene-3-carboxylic acid], the IC50 was < 10 µM. As for `O=C(Nc1scc(-c2cc(F)c(Cl)c(F)c2)c1C(=O)O)c1nc2ccccc2o1` [2-(benzo[d]oxazole-2-carboxamido)-4-(4-chloro-3,5-difluorophenyl)thiophene-3-carboxylic acid], the IC50 was < 10 µM. On to `O=C(Nc1scc(-c2ccc(Cl)c(C(F)(F)F)c2)c1C(=O)O)c1nc2ccccc2o1` [2-(benzo[d]oxazole-2-carboxamido)-4-(4-chloro-3-(trifluoromethyl)phenyl)thiophene-3-carboxylic acid], for which the IC50 is < 10 µM. The value for `N#Cc1cc(-c2csc(NC(=O)c3nc4ccccc4o3)c2C(=O)O)ccc1Cl` [2-(benzo[d]oxazole-2-carboxamido)-4-(4-chloro-3-cyanophenyl)thiophene-3-carboxylic acid] was < 10 µM; that for `O=C(Nc1scc(-c2ccc(Cl)c(F)c2)c1C(=O)O)c1nc2ccccc2o1` [2-(benzo[d]oxazole-2-carboxamido)-4-(4-chloro-3-fluorophenyl)thiophene-3-carboxylic acid] was < 10 µM. For the compound `COc1cc(-c2csc(NC(=O)c3nc4ccccc4o3)c2C(=O)O)ccc1Cl` [2-(benzo[d]oxazole-2-carboxamido)-4-(4-chloro-3-methoxyphenyl)thiophene-3-carboxylic acid], the IC50 was < 10 µM.

As to `O=C(Nc1scc(-c2ccc(Cl)cc2)c1C(=O)O)c1nc2ccccc2o1` [2-(benzo[d]oxazole-2-carboxamido)-4-(4-chlorophenyl)thiophene-3-carboxylic acid], the IC50 was < 10 µM. For the compound `N#Cc1ccc(-c2csc(NC(=O)c3nc4ccccc4o3)c2C(=O)O)c(F)c1` [2-(benzo[d]oxazole-2-carboxamido)-4-(4-cyano-2-fluorophenyl)thiophene-3-carboxylic acid], the concentration for half-maximal inhibition (IC50) was < 10 µM. Consider `Cc1cc(C#N)ccc1-c1csc(NC(=O)c2nc3ccccc3o2)c1C(=O)O` [2-(benzo[d]oxazole-2-carboxamido)-4-(4-cyano-2-methylphenyl)thiophene-3-carboxylic acid], for which the IC50 is < 10 µM. On to `O=Cc1ccc(-c2csc(NC(=O)c3nc4ccccc4o3)c2C(=O)O)cc1` [2-(benzo[d]oxazole-2-carboxamido)-4-(4-formylphenyl)thiophene-3-carboxylic acid], for which the IC50 was < 10 µM. Take `O=C(Nc1scc(-c2ccc(Oc3ccccc3)cc2)c1C(=O)O)c1nc2ccccc2o1` [2-(benzo[d]oxazole-2-carboxamido)-4-(4-phenoxyphenyl)thiophene-3-carboxylic acid]: the IC50 was < 10 µM.

In the case of `O=C(Nc1scc(-c2cc3cccc(O)c3o2)c1C(=O)O)c1nc2ccccc2o1` [2-(benzo[d]oxazole-2-carboxamido)-4-(7-hydroxybenzofuran-2-yl)thiophene-3-carboxylic acid], the IC50 is < 10 µM. Regarding `COc1cccc2cc(-c3csc(NC(=O)c4nc5ccccc5o4)c3C(=O)O)oc12` [2-(benzo[d]oxazole-2-carboxamido)-4-(7-methoxybenzofuran-2-yl)thiophene-3-carboxylic acid], the IC50 was < 10 µM. As for `O=C(Nc1scc(-c2ccc(Cl)cc2)c1C(=O)O)c1ccc2ncoc2c1` [2-(benzo[d]oxazole-6-carboxamido)-4-(4-chlorophenyl)thiophene-3-carboxylic acid], the IC50 is < 10 µM. For `Cc1ccc(-c2csc(NC(=O)c3nc4ccccc4s3)c2C(=O)O)c(F)c1F` [2-(benzo[d]thiazole-2-carboxamido)-4-(2,3-difluoro-4-methylphenyl)thiophene-3-carboxylic acid], the half-inhibitory concentration (IC50) is < 10 µM.

With `Cc1ccc(-c2csc(NC(=O)c3nc4ccccc4s3)c2C(=O)O)c(F)c1` [2-(benzo[d]thiazole-2-carboxamido)-4-(2-fluoro-4-methylphenyl)thiophene-3-carboxylic acid], the IC50 was < 10 µM. Turning to `Cc1ccc(-c2csc(NC(=O)c3nc4ccccc4s3)c2C(=O)O)cc1F` [2-(benzo[d]thiazole-2-carboxamido)-4-(3-fluoro-4-methylphenyl)thiophene-3-carboxylic acid], the IC50 was < 10 µM. Next, `O=C(Nc1scc(-c2ccc(Br)cc2)c1C(=O)O)c1nc2ccccc2s1` [2-(benzo[d]thiazole-2-carboxamido)-4-(4-bromophenyl)thiophene-3-carboxylic acid]: < 10 µM.

The record behind these values is patent US8394848B2, “Compounds that modulate intracellular calcium” (Calcimedica, Inc., priority 2008, dated 2013).
